Results on one substance are retold here after patent US20040039211A1, “Tetrapyrroles” (DUKE UNIVERSITY AND NATIONAL JEWISH MEDICAL AND RESEARCH …, priority 2000, published 2004).

A short description of data set [1]: SOD activity, xanthine oxidase/cytochrome c method. The data set is classed as biochemical. Conditions: for kcat, O2^− dismutation: competition with 10 μM cytochrome c, pH 7.8, 25° C. The procedure: FIG. 12. […] The v0 is the rate of reduction of 10 μM cytochrome c by O2. The vi is the rate of reduction of cytochome c inhibited by the porphyrin catalyst in the presence of 0.1 mM EDTA in 0.05 M tris buffer at pH 7.8. 40 μM xanthine. ˜2 nM xanthine oxidase at 25° C. The total volume of the assay solution is 3 mL.
SOD Activity. Catalysis of the dismutating of O2 in vitro was followed by the xanthine oxidase/cytochrome c method (McCord et al, J. Biol. Chem. 244:6049 (1969)).
Dismutation of superoxide anion, O2^−. Assays were conducted in 0.05 M aqueous phosphate buffer, pH 7.8, 0.1 mM EDTA, ±15 μg/mL of catalase, ±albumin. Rate constants for the reaction with O2^−were based upon the competition of the compounds with cytochrome c.
Two metallotetrapyrroles were tested for antioxidant activity, in vitro. In particular, the compounds were assayed for their ability to dismutate superoxide in the indirect method that utilizes xanthine and xanthine oxidase to generate superoxide and cytochrome c reduction as indicator of superoxide flux. […] The compounds were also assayed for their ability to prevent lipid peroxidation of rat brain homogenates by iron and ascorbate. The mixture of iron and ascorbate generates reactive oxygen species that oxidize biological lipids and these oxidized lipids can be detected as species that react with thiobarbituric acid (TBARS).
a) SOD activity determined using a xanthine oxidase/cytochrome c assay

Data set [2] can be described thus: Cyclic voltammetry, metal-centered redox potential. The data set is classed as physicochemical. Conditions: 90/10 (v/v) methanol/aqueous solution, pH* 7.9. The method, then:
Manganese(III) Salen. The compound was prepared by the published procedure (Boucher, J. lnorg. Nucl. Chem. 36:531 (1974)). The uv/vis in water: ε235=3.70×10^4 cm^−1 M^−1, ε279=1.70×10^4 cm^−1 M^−1, ε397=4.60×10^3 cm^−M^−1. The elemental analysis: Anal. Calcd for Mn^IIIsalenCl, C16H14N2O2MnCl: C, 53.88; H, 3.96; N; 7.85. Found: C, 54.02; H, 4.06; N, 7.85. […] Based on the E1/2 of Mn^IIITM-2-PyP^5+, ferrocenemethanol and of K3Fe(CN)6 in water and methanol, the redox potential of Mn^III salen^+ in water was calculated to be E1/2=−0.13 V vs NHE.
Electrochemistry of the Manganese(III) Biliverdin Dimethylester. Measurements were made using a CH Instruments model 600 voltammetric analyzer as described previously(Batinic-Haberle et al, Inorg. Chem. 38:4011 (1999)). A three-electrode system in a small volume (0.5-3.0 mL), with a 3 mm diameter glassy carbon button working electrode (Bioanalytical Systems), Ag/AgCl reference electrode (3 M NaCl, Bioanalytical Systems), and a Pt wire (0.5 mm) as auxiliary electrode, were used. The cyclic votammetry was performed on 0.5 mM (per manganese) methanol/aqueous (90/10, v/v) solutions of the compounds investigated. The ionic strength was kept at 0.10 M (NaCl), and 0.05 M tris buffer was used for pH^* adjustment. For calibration purposes, compounds of different hydrophilicities, […], (Kolthof et al, J. Phys. Chem. 39:945 (1935)) ferrocenemethanol and Mn^IIITM-2-PyP^5+ were studied in both aqueous and methanol/aqueous (90/10, v/v) solutions (I=0.10 M NaCl, 0.05 M tris buffer, pH^* 7.9). In all cases the measured E1/2 was 170 mV more positive in methanolic than in aqueous solution and this value was used to predict the redox potential in aqueous solution from measurement in methanol/aqueous solution.

The nature of data set [3]: Degradation by H2O2 followed by uv/vis spectroscopy. The data set is classed as physicochemical. The text has this: Uv/vis Spectroscopy. […] Also the effects of EDTA, H2O2, and the methanol/water ratio on the stability of the manganese(III) complex were examined. […] 79:699 (1960)). When needed the biliverdin and biliverdin dimethylester as well as their reduced forms bilirubin and bilirubin dimethylester were studied. At μM concentrations, manganese(III) and iron(III) porphyrins are degraded by H2O2 in aqueous solution. pH 7.8 (Batinic-Haberle et al, Inorg. Chem. 38:4011 (1999), Everett et al, J. Trans. Faraday Soc. 49:410 (1953)). […] The reaction was followed in 90/10, v/v methanouaqueous solution at pH^* 7.9. […] The uv/vis spectroscopy indicated degradation via the reduction of biliverdin to bilirubin followed by loss of metal (Gray et al, J. Chem. Soc. 2276 (1961); Kuenzle et al, Biochem. J. 130:1147 (1972); […], Nature 899 (1962)). The interaction of biliverdin and bilirubin with H2O, was also followed in 0.05 M tris buffer, pH 7.8. As observed for its metal complex, biliverdin undergoes reduction by H2O2 via bilirubin. Under pseudo-first order conditions (6 mM to 60 mM H2O2, 60 μM biliverdin), the second-order rate constant was k=3×10^-3 M^-1 s^-1. Bilirubin is more resistant to H2O2 than biliverdin or its metal complex. The disappearance of bilirubin was followed at 435 nm (Gray et al, J. Chem. Soc. 2268 (1961)). Under conditions given above and at 60 mM H2O2, about 40% of the biliverdin and 14% of bilirubin was degraded within 4.4 hours, and about 14% of the complex was degraded inside 80 min.

A short description of data set [4]: Stability in the presence of excess EDTA (uv/vis). The data set is classed as physicochemical. The method, then:
(§1) Uv/vis Spectroscopy. […] Also the effects of EDTA, H2O2, and the methanol/water ratio on the stability of the manganese(III) complex were examined. […] […] 79:699 (1960)). When needed the biliverdin and biliverdin dimethylester as well as their reduced forms bilirubin and bilirubin dimethylester were studied. […] In a week, at 25° C., only 14% of the complex dissociated. When the water content was increased to 43%, half the complex dissociated in a week.

Data set [5] can be described thus: Hydrolysis / dissociation of the complex in methanol/aqueous or water solution. The data set is classed as physicochemical. The method, then:
as §1

Another data set in a line: Solubility. The data set is classed as physicochemical.

“Manganese(III) Biliverdin IX Dimethylester [{Mn^IIIBVDME}2]”: in data set [1], the “specific activity (SOD mimetic)” value was 10,700 units/mg. The “effect of albumin on SOD-like activity” value in data set [1] (1:1 albumin to compound ratio) was “no negative effect of albumin was observed”. Moreover, the “decrease of SOD-like activity in the presence of albumin” value in data set [1] (albumin to compound ratio 3) was 50%. Moreover, the SOD specific activity in data set [1] (per manganese, 1 unit = quantity (mg) per 3.0 mL causing 50% inhibition of reduction of 10 μM cytochrome c) worked out at 10700 U/mg. Also, the “kcat, O2^− dismutation” value was found to be 5.5e+07 M⁻¹ s⁻¹ in data set [1] (per manganese); 5.5e+07 M⁻¹ s⁻¹ in data set [1] (per manganese, listed as compound of FIG. 2C); 5.5e+07 M⁻¹ s⁻¹ in data set [1] (per manganese, listed as ½ {Mn^III/IVBVDME^0/−}2). In data set [1] (xanthine oxidase/cytochrome c assay), the “SOD Activity” value is on record as 10,700 USOD/mg. For the same substance, the “E1/2, V vs Ag/AgCl” value in data set [2] (Mn(III)/Mn(II) couple) was −0.32 V vs Ag/AgCl; in data set [2] (Mn(III)/Mn(IV) couple) it was “+0.36 V vs Ag/AgCl”; in data set [2] (Mn(III)/Mn(IV) couple, listed as ½ {Mn^III/IVBVDME^0/−}2) it was −0.36 V vs Ag/AgCl. Also, the “fraction degraded by H2O2” value in data set [3] (60 mM H2O2, inside 80 min) is on record as “about 14%”. Besides, in data set [3] (90/10 v/v methanol/aqueous, pH* 7.9, 6 mM to 120 mM H2O2, 15 and 30 μM complex), the “second-order rate constant k of H2O2 induced degradation” value was found to be 0.00064 M⁻¹ s⁻¹. The “stability in the presence of EDTA” value in data set [4] (1 μM, 900-fold excess EDTA (0.9 mM), 2-4 hours, 25° C., methanol/aqueous (90/10), 0.05 M tris, pH* 7.9) was “stable”; in data set [4] (20 μM, 900-fold excess of EDTA, pH 7.8), “stable”. The “fraction of complex dissociated (hydrolysis)” value in data set [5] (90/10 methanol/aqueous, pH* 7.9, one week, 25° C.) is listed as 14%; in data set [5] (water content 43%, one week), “half”. In addition, the “solubility in organic solvents” value in “Solubility” (ethanol, methanol) was “soluble in ethanol and methanol”. For the same substance, in “Solubility” (water), the solubility in water is given as ~10^−8 M.
